Laboratory results as given in patent publication US5968526A, “T cell epitopes of the major allergens from Dermatophagoides (house dust mite)” (Immulogic Pharamaceutical Corporation, priority 1995, dated 1999).

How the values were obtained:
[1] = tested on: T cell lines primed in vitro with Der p I; assay: T cell proliferation with fine map and modified Group I peptides (Example XIV); assay type: cell-based, human; conditions: for positive T cell responses, modified peptides: 18 T cell lines, affinity purified Der p I primed, FIG. 31a
Method: Long term T cell lines were established by stimulation of 2×10^6 PBL/ml in bulk cultures of complete medium (RPMI-1640, 2 mM L-glutamine, 100 U/ml penicillin/streptomycin, 5×10^-5 M 2-mercaptoethanol, and 10 mM HEPES supplemented with 5% heat inactivated human AB serum) with 30 μg/ml of purified native Der p I or Der p II for 5-6 days at 37° C. in a humidified 5% CO2 incubator to select for house dust mite protein allergen reactive T cells. This amount of priming antigen was determined to be optimal for the activation of T cells from house dust mite allergic patients. Viable cells were purified by LSM centrifugation and cultured in complete medium supplemented with 5 units recombinant human IL-2/ml and 5 units recombinant human IL-4/ml for up to three weeks until the cells no longer responded to lymphokines and were considered "rested". The ability of the T cells to proliferate to selected peptides, purified Der p I or Der p II, or positive (PHA) controls or negative controls (medium only) was then assessed. For assay, 2×10^4 rested cells were restimulated in the presence of 2×10^4 autologous Epstein-Barr virus (EBV)-transformed B cells (prepared as described below) (gamma-irradiated with 25,000 RADS) or with 5×10^4 autologous PBMs (gamma-irradiated with 3500 RADS), with 2-50 μg/ml of purified native Der p I or Der p II in a volume of 200 μl complete medium in duplicate or triplicate wells in 96-well round bottom plates for 3 days. Each well then received 1 μCi tritiated thymidine for 16-20 hours. The counts incorporated were collected onto glass fiber filter mats and processed for liquid scintillation counting. […] The titrations were used to optimize the dose of peptides in T cell assays.
The maximum response in a titration of each peptide is expressed as the stimulation index (S.I.). The S.I. is the counts per minute (CPM) incorporated by cells in response to peptide, divided by the CPM incorporated by cells in medium only. […] The positive results were used in calculating mean stimulation indices for each peptide for the individual patient tested.
The above procedure was followed with 18 patients in the studies using peptides derived from Der p I and Der f I (FIGS. 31a-b), and 21 patients in the studies with Der p II peptides (FIGS. 32a-b). Individual patient results were used in calculating the mean S.I. for each peptide if the patient responded to the Der p I or Der p II protein at an S.I. of 2.0 or greater and the patient responded to at least one peptide derived from a house dust mite allergen at an S.I. f 2.0 or greater. A summary of positive experiments from the patients tested is shown in FIGS. 32a and 32b and FIGS. 33a and 33b. The bars represent the positivity index. […] In parenthesis above each bar are the mean stimulation indices for each peptide or protein for the group of patients tested.
Autologous EBV-transformed cell lines were γ-irradiated with 25,000 Rad and used as antigen presenting cells in secondary proliferation assays and secondary bulk stimulations. These EBV-transformed cell lines were made by incubating 5×10^6 PBL with 1 ml of B-59/8 Marmoset cell line (ATCC CRL1612, American Type Culture Collection, Rockville, Md.) conditioned medium in the presence of 1 μg/ml phorbol 12-myristate 13-acetate (PMA) at 37° C. for 60 minutes in 12×75 mm polypropylene round-bottom Falcon snap cap tubes (Becton Dickinson Labware, Lincoln Park, N.J.). These cells were then diluted to 1.25×10^6 cells/ml in RPMI-1640 as described above except supplemented with 10% heat-inactivated fetal bovine serum and cultured in 200 μl aliquots in flat bottom culture plates until visible colonies were detected. They were then transferred to larger wells until the cell lines were established.

[2] = tested on: T cell lines primed in vitro with Der p II; assay: T cell proliferation with fine map and modified Group II peptides (Example XIV); assay type: cell-based, human; conditions: for positive T cell responses, modified peptides: 21 T cell lines, Der p II primed, FIG. 32a; for T cell response, Group II peptides: FIGS. 32a-b
Outline: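 Bulk T cell lines primed with 30 μg/ml native Der p I or Der p II for 5-6 days, rested with IL-2/IL-4, then restimulated 3 days with peptides plus irradiated autologous EBV-B cells or PBMs. Proliferation by 16-20 h [3H]thymidine uptake; stimulation index = peptide CPM / medium CPM, averaged over responding patients.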

Substance | T cell response, Group I peptides ([1]; FIGS. 31a-b) | T cell response, Group II peptides [2] | also measured
DP I-21.2: Der p I peptide; unique peptide (SINGNAPAEIDLRQMRTVTPIRMQ) | positive response | – | positivity index, comparison ([1]; FIGS. 31a-b): higher positivity index then either of the overlapping peptides, DP I-1 and DP I-2
DF I-22.2: VAATESAYLAYRNTSLDLSEQELVD, amino acid residues 40-64 of Der f I | positive responses | – | –
DP I-26.6: modified Der p I peptide; unique peptide (DEGIKDLDAFRHYDGRTIIQRDNGYE) | positive T cell studies | – | positive T cell responses, modified peptides [1]: all eighteen T cell lines responded positively
DP I-1: Der p I peptide, amino acid residues 1-20 (TNACSINGNAPAEIDLRQMR) | positive response | – | –
DP II-22.14: DKELEAVFEANQNTKTAKAE; unique peptide | – | positive T cell studies | positive T cell responses, modified peptides [2]: all 21 T cell lines responded positively
DP II-22: QLEAVFEANQNTKTAKIEIKASIDGLEV | – | positive T cell studies | –
DP I-23.31: modified Der p I peptide; unique peptide (DEEGVVQESYYRYVAREQSCRRPNAE) | positive T cell studies | – | positive T cell responses, modified peptides [1]: all eighteen T cell lines responded positively
DP II-20.9: modified Der p II peptide; unique peptide (DQVDVKDCANHEIKKVLVPGCHGSE) | – | positive T cell studies | positive T cell responses, modified peptides [2]: all 21 T cell lines responded positively
